Measurements from patent US20120015923A1, “USE OF ANDROGRAPHOLIDE COMPOUNDS FOR TREATING INFLAMMATION AND AIRWAY DISORDERS” (NATIONAL UNIVERSITY OF SINGAPORE, priority 2009, published 2012).

Legend:
[1] = tested on: inflammatory gene expression in lung tissues; assay: Pulmonary mRNA expression of inflammatory markers (RT-PCR); format: in vivo, BALB/c mice; details: lungs 24 hours after last OVA aerosol
Description: Lungs were isolated from the thoracic cavity 24 hours after the last OVA or saline challenge, and stored in RNAlater. The samples were first incubated at […] overnight for the RNAlater to permeate into the lung tissues to stabilize the RNA. The samples were then stored at −80° C. Before RNA isolation, lung tissues were thawed at […] They were then removed from the RNAlater and immersed in 1 ml Trizol solution. Then, homogenization was performed using a homogenizer (SilentCrusher M, Heidolph Elektro GmbH & Co., Kelheim, Genman). All samples were placed on ice to prevent RNA degradation. The homogenates were then centrifuged at 12,000 g for 10 min at 4° C. The clear RNA containing supernatant was then decanted, incubated for 5 min in room temperature, and 0.2 ml of chloroform was added. All tubes were shaken vigorously for 15 seconds and incubated at room temperature for 3 minutes before being centrifuged at 12,000 g for 15 min at 4° C. About 500 μl of the colourless upper aqueous layer containing RNA, was decanted. 0.5 ml of isopropanol was added and mixed for 30 sec, before being incubated at room temperature for 10 minutes. The tubes were then centrifuged at 12000 rpm for 15 min at 4° C. The supernatant was discarded and 1 ml of 75% ethanol was added to the RNA pellet. Centrifugation at 8500 rpm for 5 minutes at 4° C. was then performed to wash the pellet. The supernatant was again discarded and the washed RNA pellet was air-dried at room temperature for 10 min. The dried RNA pellet was dissolved in 100 μl of ribonuclease-free DEPC water and incubated at 55° C. for 10 minutes. The amount and purity of RNA present in the sample was quantified using the spectrophotometer (NanoDrop ND-1000 from Thermo Risher
Reverse transcription was performed to synthesize single-stranded complementary DNA (cDNA) templates from the RNA extracted. Volume containing 1 μg total RNA was calculated based on the nucleic acid concentration measured from the spectrophotometer, and was topped up to 20 μl with DEPC water. 10.58 μl of master mix was then added to each sample. Then, cDNA was synthesized from 1 μg of RNA using a multiwall thermal cycler (GeneAmp PCR system 2700 from Applied Biosystems, Foster City, Calif., USA) by bringing the reaction volume to 95° C. for 10 minutes and 42° C. for 30 minutes.
PCR amplifications were then performed using the multiwell thermal cycler on 1 μl cDNA template in a 25 μl reaction volume. The reaction volume contained 10.5 μl nuclease-free water, 0.5 μl forward primer (10 μM), 0.5 μl reverse primer (10 μM) and 12.5 μl 2×PCR master mix (50 units/ml TaqDNA polymerase, 400 μM dATP, 400 μM dGTP, 400 μM dCTP, 400 μM dTTP and 3 mM MgCl2).

[2] = tested on: lung tissue eosinophilia, mucus secretion and mast cells; assay: Histologic analysis of lung tissue (H&E, PAS, toluidine-blue); format: in vivo, BALB/c mice; details: OVA-challenged mice; for lung tissue eosinophilia / eosinophil-rich leukocyte infiltration (H&E): vs DMSO control
Description: Lungs were fixed in 10% neutral formalin, paraffinized, cut into 6-μm sections, and stained with hematoxylin and eosin (H&E) for examining cell infiltration and with periodic acid-Schiff stain (PAS) for measuring mucus production. Quantitative analysis was performed blinded as described below. Mast cells were detected in lung tissue using toluidine-blue staining, and the number of mast cells was counted in paraffin sections. The percentage of degranulated mast cells in the lung was calculated by counting the number of cells with 10% of extrusion of granules.
For both H&E and PAS staining, bronchioles selected for analysis were of similar structure and sizes, with clear morphology presentations and minimum disruptions of the surrounding tissues that could be formed during sectioning. The scoring of inflammatory and globlet cells was performed in 2-4 preparations of each mouse and mean scores were calculated from 4-5 mice. Peribronchial cell counts were performed in a blind manner and scored as known in the art. A five-point scoring system (0-4) was adapted: 0, no cells; 1, a few cells; 2, a ring of cells one cell layer deep; 3, a ring of cells two to four cells deep; 4, a ring of cells more than four cells deep. Goblet cell hyperplasia in the airway epithelium was assessed blind and scored according to the percentage of PAS-positive mucus-producing cells. A five-point (0-4) grading system was as follows: 0, no goblet cells; 1, <25%; 2, 25-50%; 3, 50-75%; 4, >75%. Briefly, to determine the severity of inflammatory cell infiltration, peribronchial cell counts were performed blind based on a 5-point scoring system: 0, no cells; 1, a few cells; 2, a ring of cells 1 cell layer deep; 3, a ring of cells 2-4 cells deep; 4, a ring of cells of >4 cells deep. To determine the extent of mucus production, goblet cell hyperplasia in the airway epithelium was quantified blind using a 5-point grading system: 0, no goblet cells; 1, <25%; 2, 25-50%; 3, 50-75%; 4, >75%. Scoring of inflammatory cells and goblet cells was performed in at least 3 different fields for each lung section. Mean scores were obtained from 4 animals. *Significant difference from DMSO control, P<0.05.

SMILES | ICAM-1 gene expression in lung [1] | VCAM-1 gene expression in lung [1] | YM1 gene expression in lung [1] | inducible nitric oxide synthase mRNA expression in lung tissues [1] | AMCase mRNA expression in lung tissues ([1]; DDAG 1 mg/kg) | E-selectin mRNA expression in lung tissues ([1]; DDAG 1 mg/kg) | Muc5ac mRNA expression in lung tissues ([1]; DDAG 1 mg/kg) | YKL-40 mRNA expression in lung tissues ([1]; DDAG 1 mg/kg) | Ym2 mRNA expression in lung tissues ([1]; DDAG 1 mg/kg) | E-selectin [2] | VCAM-1 [2] | airway mucus production / mucus hypersecretion (PAS) ([2]; 1 mg/kg) | lung tissue eosinophilia / eosinophil-rich leukocyte infiltration (H&E) ([2]; 1 mg/kg) | COX2 mRNA expression in lung tissues ([1]; DDAG 1 mg/kg) | IL-17 mRNA expression in lung tissues ([1]; DDAG 1 mg/kg) | IL-33 mRNA expression in lung tissues ([1]; DDAG 1 mg/kg) | total degranulating mast cell counts in toluidine-blue staining lung section ([2]; 1 mg/kg, vs DMSO vehicle control)
C=C1CC[C@@H]2[C@](C)(CO)[C@H](O)CC[C@@]2(C)[C@@H]1C/C=C1/C(=O)OC[C@H]1O [Andrographolide] | inhibition | inhibition | inhibition | attenuated | markedly down-regulated | attenuated | attenuated | markedly down-regulated | markedly down-regulated | inhibited | inhibited | attenuated | attenuated |  |  |  | 
C=C1CCC2C(C)(CO)C(O)CCC2(C)C1C=CC1=CCOC1=O (stereo not drawn) [DDAG, 14-Deoxy-11,12-didehydroandrographolide] |  |  |  |  | strong suppression | strong suppression | strong suppression | strong suppression | strong suppression |  |  | significantly halted | markedly diminished | strong suppression | strong suppression | strong suppression | drastically decreased
